We go through 15 compounds from US12304890B2, “R-type pyridyloxycarboxylic acid, salt and ester derivative thereof, and preparation method therefor, and herbicidal composition and application thereof” (Qingdao Kingagroot Chemical Compound Co., Ltd., priority 2018, dated 2025).

Common to all, as to assay type: in vivo
The test system of one experiment is Echinochloa crusgalli. As to the kind of experiment: Post-emergence test experiment, Echinochloa crusgalli. Conditions: 1000 g a.i./ha, 3 weeks in greenhouse, fresh weight inhibition. In a few lines: (§1)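 Weed and crop seeds were sown in soil-filled pots, covered with 0.5-2 cm soil and grown in a greenhouse. Plants were sprayed at the 2-3 leaf stage, 2 weeks after sowing. Compounds were in acetone with tween-80 plus methyl oleate emulsible concentrate synergist (1.5 liters per hectare). Fresh weight inhibition was scored after 3 weeks.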

The subject of another experiment is Digitaria sanguinalis. As to the kind of experiment: Post-emergence test experiment, Digitaria sanguinalis. Conditions: 1000 g a.i./ha, 3 weeks in greenhouse, fresh weight inhibition. In a few lines:
as §1

Experiment [1] concerns Monocotyledonous and dicotyledonous weed seeds and main crop seeds. As to the kind of experiment: Post-emergence test experiment, other weeds and crops (Table 4, 1000 g a.i./ha). The settings on record: 3 weeks in greenhouse, fresh weight inhibition. The method, boiled down:
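Weed and crop seeds (wheat, corn, rice, soybean, cotton, oilseed, millet, sorghum) sown in soil pots in a greenhouse and sprayed at 2-3 leaf stage, 2 weeks after sowing. Compound in acetone/tween-80 with methyl oleate concentrate (1.5 L/ha) as synergist. Effect recorded as fresh-weight growth inhibition rate.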

Regarding `CC(Oc1nc(F)c(Cl)c(N)c1Cl)C(=O)OC1CCCO1` (stereo not drawn) [Compound 2-297], in the experiment on Echinochloa crusgalli, the “Activity level (growth inhibition rate), Echinochloa crusgalli” value is on record as 5 (Level 5: the growth inhibition rate is greater than 85%). Besides, the “Activity level (growth inhibition rate), Digitaria sanguinalis” value in the experiment on Digitaria sanguinalis is 5 (Level 5: the growth inhibition rate is greater than 85%). In addition, in experiment [1], the “Activity level (growth inhibition rate), Abutilon theophrasti Medic.” value was 5 (Level 5: the growth inhibition rate is greater than 85%); the “Activity level (growth inhibition rate), Galium aparine” value is recorded as 5 (Level 5: the growth inhibition rate is greater than 85%); the “Activity level (growth inhibition rate), Monochoria Vaginalis” value is given as 5 (Level 5: the growth inhibition rate is greater than 85%).
In the case of `C[C@@H](Oc1nc(F)c(Cl)c(N)c1Cl)C(=O)SCC(C)(C)C` [Compound 2-92], the “Activity level (growth inhibition rate), Echinochloa crusgalli” value with Echinochloa crusgalli is 5 (Level 5: the growth inhibition rate is greater than 85%). In addition, the “Activity level (growth inhibition rate), Digitaria sanguinalis” value with Digitaria sanguinalis was 5 (Level 5: the growth inhibition rate is greater than 85%). In experiment [1], the “Activity level (growth inhibition rate), Abutilon theophrasti Medic.” value is listed as 5 (Level 5: the growth inhibition rate is greater than 85%); the “Activity level (growth inhibition rate), Galium aparine” value is listed as 5 (Level 5: the growth inhibition rate is greater than 85%); the “Activity level (growth inhibition rate), Monochoria Vaginalis” value is on record as 5 (Level 5: the growth inhibition rate is greater than 85%).
As for `CC(Oc1nc(F)c(Cl)c(N)c1Cl)C(=O)SC1CCCCC1` (stereo not drawn) [Compound 2-266], the “Activity level (growth inhibition rate), Echinochloa crusgalli” value in the experiment on Echinochloa crusgalli is reported as 5 (Level 5: the growth inhibition rate is greater than 85%). Further, the “Activity level (growth inhibition rate), Digitaria sanguinalis” value with Digitaria sanguinalis is 5 (Level 5: the growth inhibition rate is greater than 85%). Besides, in experiment [1], the “Activity level (growth inhibition rate), Abutilon theophrasti Medic.” value is on record as 5 (Level 5: the growth inhibition rate is greater than 85%); the “Activity level (growth inhibition rate), Galium aparine” value is 5 (Level 5: the growth inhibition rate is greater than 85%); the “Activity level (growth inhibition rate), Monochoria Vaginalis” value was 5 (Level 5: the growth inhibition rate is greater than 85%).
Take `C#CCOC(=O)C(C)Oc1nc(F)c(Cl)c(N)c1Cl` (stereo not drawn) [Compound 2-275]: the “Activity level (growth inhibition rate), Echinochloa crusgalli” value in the experiment on Echinochloa crusgalli was 5 (Level 5: the growth inhibition rate is greater than 85%). Besides, the “Activity level (growth inhibition rate), Digitaria sanguinalis” value with Digitaria sanguinalis is recorded as 5 (Level 5: the growth inhibition rate is greater than 85%). Moreover, in experiment [1], the “Activity level (growth inhibition rate), Abutilon theophrasti Medic.” value is given as 5 (Level 5: the growth inhibition rate is greater than 85%); the “Activity level (growth inhibition rate), Galium aparine” value was 5 (Level 5: the growth inhibition rate is greater than 85%); the “Activity level (growth inhibition rate), Monochoria Vaginalis” value is on record as 5 (Level 5: the growth inhibition rate is greater than 85%).
Turning to `C[C@@H](Oc1nc(F)c(Cl)c(N)c1Cl)C(=O)OCc1ccc2ccccc2c1` [Compound 2-340], in the experiment on Echinochloa crusgalli, the “Activity level (growth inhibition rate), Echinochloa crusgalli” value is listed as 5 (Level 5: the growth inhibition rate is greater than 85%). The “Activity level (growth inhibition rate), Digitaria sanguinalis” value in the experiment on Digitaria sanguinalis is listed as 5 (Level 5: the growth inhibition rate is greater than 85%). Moreover, in experiment [1], the “Activity level (growth inhibition rate), Abutilon theophrasti Medic.” value is reported as 5 (Level 5: the growth inhibition rate is greater than 85%); the “Activity level (growth inhibition rate), Galium aparine” value is on record as 5 (Level 5: the growth inhibition rate is greater than 85%); the “Activity level (growth inhibition rate), Monochoria Vaginalis” value was 5 (Level 5: the growth inhibition rate is greater than 85%).
In the case of `CC(Oc1nc(F)c(Cl)c(N)c1Cl)C(=O)OC(N)C(=O)O` (stereo not drawn) [Compound 2-371], the “Activity level (growth inhibition rate), Echinochloa crusgalli” value with Echinochloa crusgalli was 5 (Level 5: the growth inhibition rate is greater than 85%). In addition, in the experiment with Digitaria sanguinalis, the “Activity level (growth inhibition rate), Digitaria sanguinalis” value is on record as 5 (Level 5: the growth inhibition rate is greater than 85%). Moreover, in experiment [1], the “Activity level (growth inhibition rate), Abutilon theophrasti Medic.” value is given as 5 (Level 5: the growth inhibition rate is greater than 85%); the “Activity level (growth inhibition rate), Galium aparine” value is on record as 5 (Level 5: the growth inhibition rate is greater than 85%); the “Activity level (growth inhibition rate), Monochoria Vaginalis” value is 5 (Level 5: the growth inhibition rate is greater than 85%).
`CCC(OC)OC(=O)C(C)Oc1nc(F)c(Cl)c(N)c1Cl` (stereo not drawn) [Compound 2-291]: the “Activity level (growth inhibition rate), Echinochloa crusgalli” value in the experiment with Echinochloa crusgalli is 5 (Level 5: the growth inhibition rate is greater than 85%). Moreover, the “Activity level (growth inhibition rate), Digitaria sanguinalis” value in the experiment on Digitaria sanguinalis is listed as 5 (Level 5: the growth inhibition rate is greater than 85%). Also, in experiment [1], the “Activity level (growth inhibition rate), Abutilon theophrasti Medic.” value was 5 (Level 5: the growth inhibition rate is greater than 85%); the “Activity level (growth inhibition rate), Galium aparine” value is 5 (Level 5: the growth inhibition rate is greater than 85%); the “Activity level (growth inhibition rate), Monochoria Vaginalis” value is 5 (Level 5: the growth inhibition rate is greater than 85%).
Regarding `CCCCCCC(C)OC(=O)[C@@H](C)Oc1nc(F)c(Cl)c(N)c1Cl` (stereo partly drawn) [Compound 2-163], the “Activity level (growth inhibition rate), Echinochloa crusgalli” value in the experiment on Echinochloa crusgalli is given as 5 (Level 5: the growth inhibition rate is greater than 85%). In addition, in the experiment with Digitaria sanguinalis, the “Activity level (growth inhibition rate), Digitaria sanguinalis” value is 5 (Level 5: the growth inhibition rate is greater than 85%). In addition, in experiment [1], the “Activity level (growth inhibition rate), Abutilon theophrasti Medic.” value was 5 (Level 5: the growth inhibition rate is greater than 85%); the “Activity level (growth inhibition rate), Galium aparine” value was 5 (Level 5: the growth inhibition rate is greater than 85%); the “Activity level (growth inhibition rate), Monochoria Vaginalis” value was 5 (Level 5: the growth inhibition rate is greater than 85%).
Turning to `CC(Oc1nc(F)c(Cl)c(N)c1Cl)C(=O)SCc1cccc(C(F)(F)F)c1` (stereo not drawn) [Compound 2-330], the “Activity level (growth inhibition rate), Echinochloa crusgalli” value with Echinochloa crusgalli is 5 (Level 5: the growth inhibition rate is greater than 85%). Also, in the experiment with Digitaria sanguinalis, the “Activity level (growth inhibition rate), Digitaria sanguinalis” value is recorded as 5 (Level 5: the growth inhibition rate is greater than 85%). Further, in experiment [1], the “Activity level (growth inhibition rate), Abutilon theophrasti Medic.” value is 5 (Level 5: the growth inhibition rate is greater than 85%); the “Activity level (growth inhibition rate), Galium aparine” value is on record as 5 (Level 5: the growth inhibition rate is greater than 85%); the “Activity level (growth inhibition rate), Monochoria Vaginalis” value was 5 (Level 5: the growth inhibition rate is greater than 85%).
On to `CC(C)=NOCCOC(=O)[C@@H](C)Oc1nc(C)c(Cl)c(N)c1Cl` [Compound 2-386], for which the “Activity level (growth inhibition rate), Echinochloa crusgalli” value in the experiment on Echinochloa crusgalli was 5 (Level 5: the growth inhibition rate is greater than 85%). Also, the “Activity level (growth inhibition rate), Digitaria sanguinalis” value in the experiment on Digitaria sanguinalis was 5 (Level 5: the growth inhibition rate is greater than 85%). Further, in experiment [1], the “Activity level (growth inhibition rate), Abutilon theophrasti Medic.” value is given as 5 (Level 5: the growth inhibition rate is greater than 85%); the “Activity level (growth inhibition rate), Galium aparine” value is on record as 5 (Level 5: the growth inhibition rate is greater than 85%); the “Activity level (growth inhibition rate), Monochoria Vaginalis” value is on record as 5 (Level 5: the growth inhibition rate is greater than 85%).
Regarding `CCC(C)CCOC(=O)[C@@H](C)Oc1nc(F)c(Cl)c(N)c1Cl` (stereo partly drawn) [Compound 2-105], the “Activity level (growth inhibition rate), Echinochloa crusgalli” value with Echinochloa crusgalli is 5 (Level 5: the growth inhibition rate is greater than 85%). In addition, in the experiment with Digitaria sanguinalis, the “Activity level (growth inhibition rate), Digitaria sanguinalis” value is listed as 5 (Level 5: the growth inhibition rate is greater than 85%). In addition, in experiment [1], the “Activity level (growth inhibition rate), Abutilon theophrasti Medic.” value is on record as 5 (Level 5: the growth inhibition rate is greater than 85%); the “Activity level (growth inhibition rate), Galium aparine” value is recorded as 5 (Level 5: the growth inhibition rate is greater than 85%); the “Activity level (growth inhibition rate), Monochoria Vaginalis” value is 5 (Level 5: the growth inhibition rate is greater than 85%).
On to `CCC(C)(C)OC(=O)C(C)Oc1nc(F)c(Cl)c(N)c1Cl` (stereo not drawn) [Compound 2-99], for which the “Activity level (growth inhibition rate), Echinochloa crusgalli” value with Echinochloa crusgalli is recorded as 5 (Level 5: the growth inhibition rate is greater than 85%). Moreover, the “Activity level (growth inhibition rate), Digitaria sanguinalis” value in the experiment with Digitaria sanguinalis is on record as 5 (Level 5: the growth inhibition rate is greater than 85%). In experiment [1], the “Activity level (growth inhibition rate), Abutilon theophrasti Medic.” value was 5 (Level 5: the growth inhibition rate is greater than 85%); the “Activity level (growth inhibition rate), Galium aparine” value is given as 5 (Level 5: the growth inhibition rate is greater than 85%); the “Activity level (growth inhibition rate), Monochoria Vaginalis” value is reported as 5 (Level 5: the growth inhibition rate is greater than 85%).
Turning to `CC(Oc1nc(F)c(Cl)c(N)c1Cl)C(=O)OC[N+](=O)[O-]` (stereo not drawn) [Compound 2-268], the “Activity level (growth inhibition rate), Echinochloa crusgalli” value with Echinochloa crusgalli was 5 (Level 5: the growth inhibition rate is greater than 85%). The “Activity level (growth inhibition rate), Digitaria sanguinalis” value with Digitaria sanguinalis is 5 (Level 5: the growth inhibition rate is greater than 85%). Also, in experiment [1], the “Activity level (growth inhibition rate), Abutilon theophrasti Medic.” value was 5 (Level 5: the growth inhibition rate is greater than 85%); the “Activity level (growth inhibition rate), Galium aparine” value was 5 (Level 5: the growth inhibition rate is greater than 85%); the “Activity level (growth inhibition rate), Monochoria Vaginalis” value is 5 (Level 5: the growth inhibition rate is greater than 85%).
Regarding `C[C@@H](Oc1nc(F)c(Cl)c(N)c1Cl)C(=O)OCc1ccsc1` [Compound 2-351], the “Activity level (growth inhibition rate), Echinochloa crusgalli” value in the experiment on Echinochloa crusgalli is 5 (Level 5: the growth inhibition rate is greater than 85%). Besides, in the experiment on Digitaria sanguinalis, the “Activity level (growth inhibition rate), Digitaria sanguinalis” value was 5 (Level 5: the growth inhibition rate is greater than 85%). Further, in experiment [1], the “Activity level (growth inhibition rate), Abutilon theophrasti Medic.” value was 5 (Level 5: the growth inhibition rate is greater than 85%); the “Activity level (growth inhibition rate), Galium aparine” value is given as 5 (Level 5: the growth inhibition rate is greater than 85%); the “Activity level (growth inhibition rate), Monochoria Vaginalis” value was 5 (Level 5: the growth inhibition rate is greater than 85%).
As to `CCCC(C)OC(=O)[C@@H](C)Oc1nc(F)c(Cl)c(N)c1Cl` (stereo partly drawn) [Compound 2-93], the “Activity level (growth inhibition rate), Echinochloa crusgalli” value in the experiment on Echinochloa crusgalli was 5 (Level 5: the growth inhibition rate is greater than 85%). In the experiment on Digitaria sanguinalis, the “Activity level (growth inhibition rate), Digitaria sanguinalis” value is 5 (Level 5: the growth inhibition rate is greater than 85%). In addition, in experiment [1], the “Activity level (growth inhibition rate), Abutilon theophrasti Medic.” value is reported as 5 (Level 5: the growth inhibition rate is greater than 85%); the “Activity level (growth inhibition rate), Galium aparine” value is 5 (Level 5: the growth inhibition rate is greater than 85%); the “Activity level (growth inhibition rate), Monochoria Vaginalis” value is recorded as 5 (Level 5: the growth inhibition rate is greater than 85%).
